Test results as given in US20180327461A1, “COMPOSITIONS AND METHODS FOR CONTROL OF VECTOR-BORNE DISEASE” (STC.UNM, priority 2015, published 2018).

Columns and labels:
P. agglomerans = format: cell-based, Pantoea agglomerans
[1] = tested on: X. fastidiosa strain Temecula; format: cell-based, Xylella fastidiosa

Row | Compound | concentration killing P. agglomerans relative to concentration killing X. fastidiosa (P. agglomerans) | concentration that killed P. agglomerans (P. agglomerans) | concentration that killed X. fastidiosa [1] | toxicity to X. fastidiosa compared with P. agglomerans [1]
1 | CC[C@H](C)[C@H](NC(=O)CN)C(=O)NCC(=O)N[C@@H](C)C(=O)N[C@H](C(=O)N[C@@H](CC(C)C)C(=O)N[C@@H](CCCCN)C(=O)N[C@H](C(=O)N[C@@H](CC(C)C)C(=O)N[C@H](C(=O)N[C@H](C(=O)NCC(=O)N[C@@H](CC(C)C)C(=O)N1CCC[C@H]1C(=O)N[C@@H](C)C(=O)N[C@@H](CC(C)C)C(=O)N[C@H](C(=O)N[C@@H](CO)C(=O)N[C@@H](Cc1c[nH]c2ccccc12)C(=O)N[C@H](C(=O)N[C@@H](CCCCN)C(=O)N[C@@H](CCCNC(=N)N)C(=O)N[C@@H](CCCCN)C(=O)N[C@@H](CCCNC(=N)N)C(=O)N[C@@H](CCC(N)=O)C(=O)N[C@@H](CCC(N)=O)C(N)=O)[C@@H](C)CC)[C@@H](C)CC)[C@@H](C)O)[C@@H](C)O)C(C)C)C(C)C [melittin, Melittin] | five times higher | 25 µM | 5 µM | more toxic to X. fastidiosa than P. agglomerans
2 | scorpine-like molecule [SLM] | – | > 75 µM | 25 µM | more toxic to X. fastidiosa than P. agglomerans
